Experimental findings from patent publication US6869797B2, “Method for more efficient electroporation” (Stratagene California, priority 1998, dated 2005) are described below.

For one assay, the system named is E. coli. Briefly: Effect of additives added to thawed competent cells on electroporation efficiency (pCMV-Script plasmid). The assay is classed as cell-based. The conditions noted are these: added after thawing, colonies with additive divided by colonies without. The method, then: Specifically, galactose (an aldohexose monosaccharide), maltose (an aldohexose disaccharide), mannitol (an aldohexose alcohol), and sorbitol (an aldohexose alcohol) additives were tested.
After two hours of freezing, competent cells were thawed and amounts varying between 0.1% and 5.0% of various sugar or sugar aldoses were added to the thawed cells. 1 μl of 10 pg/μl plasmid, pCMV-Script (Stratagene #211199) in TE buffer or water (or other low-ionic strength buffer) was added to 40 μl of the treated cells in a chilled 1.5 ml Microfuge tube. The cells were gently mixed and chilled.
The DNA-cell mixture was transferred to a chilled electroporation cuvette. The cuvette was pulsed once, using a Bio-Rad II Gene Pulsar, at 1.7 kV (kilo Volts), 200 Ω and 25 μF. The cuvette was immediately removed and 960 μl of SOC medium (2 ml of 20% glucose and 1 ml of 2M Mg per 100 ml of SOB medium) was added to resuspend the cells.
That suspension was transferred to a sterile 15-ml Falcon 2059 polypropylene tube and shaken at 225-250 rpm at 37° C. for 1 hour. We pipetted 2.5 μl of transformed cells into a 100 μl pool of SOC medium on an Amp plate (Sambrook et al. 1997). The cell/media mixture was spread over the Amp plates. The plates were incubated overnight (16-20 hours) at 37° C.

The subject of the next assay is XL1-Blue cells. Nature of the assay: Effect of sorbitol added before freezing on electrotransformation efficiency (pUC18 plasmid). The assay is classed as cell-based, E. coli. The following applies: average of 6 values. On the procedure: The effect of adding sugars, prior to freezing the cells, was tested for improved electroporation efficiency. Sorbitol was chosen as the first test compound.
To determine the optimal concentration of sorbitol, the above protocol was followed to produce electrocompetent bacterial cells. However, before freezing the cells, a solution of sorbitol was added such that the final concentrations of the suspension of cells varied from 0%, 1.0%, 2.0%, and 2.5%.
1 μl of 10 pg/μl plasmid, pUC18 (New England Biolabs) in TE buffer or water (or other low-ionic strength buffer), was added to 40 μl of the treated cells in a chilled 1.5 ml Microfuge tube. Transformed cells were obtained by following the above protocol. Various experiments were run to determine the efficiency of transformation. Five different preparations were tested in triplicate, and each preparation was plated in duplicate.

Where [1] appears, read: additive final concentration 1.0%.
[2] abbreviates: additive final concentration 2.0%.
The mark [3] stands for this setting: additive final concentration 0.75%.

With `OC[C@H]1O[C@H](O[C@H]2[C@H](O)[C@@H](O)C(O)O[C@@H]2CO)[C@H](O)[C@@H](O)[C@@H]1O` (mixture of isomers) [maltose], the Relative efficiency was found to be 1.50 in the assay with E. coli (setting [1]), 3.00 in the assay on E. coli (additive final concentration 2.5%), 1.30 in the assay on E. coli (additive final concentration 3.0%) and 1.50 with E. coli (additive final concentration 4.0%).
Turning to `O=C[C@H](O)[C@@H](O)[C@@H](O)[C@H](O)CO` [galactose], the Relative efficiency in the assay on E. coli (additive final concentration 0.5%) is 2.20; in the assay with E. coli (setting [1]) it was 1.50; in the assay on E. coli (setting [2]) it was 2.40.
On to `OC[C@@H](O)[C@@H](O)[C@H](O)[C@H](O)CO` [mannitol], for which the Relative efficiency turned out to be 3.00 with E. coli (setting [3]); 2.80 in the assay with E. coli (setting [1]); 3.30 in the assay on E. coli (additive final concentration 1.25%); 2.90 in the assay with E. coli (setting [2]); 2.80 with E. coli (additive final concentration 2.20%); 1.90 with E. coli (additive final concentration 2.40%).
As for `OC[C@@H](O)[C@@H](O)[C@H](O)[C@@H](O)CO` [sorbitol], the “Efficiency (cfu/ug pUC18)” value in the assay on XL1-Blue cells (Experiment #1, 2.0% sorbitol added before freezing) is on record as 1.2 × 10^10 cfu/ug pUC18; in the assay on XL1-Blue cells (Experiment #1, 2.5% sorbitol added before freezing) it was 1.6 × 10^10 cfu/ug pUC18; in the assay on XL1-Blue cells (Experiment #2, 1.0% sorbitol added before freezing) it was 1.23 × 10^10 cfu/ug pUC18; with XL1-Blue cells (Experiment #2, 2.0% sorbitol added before freezing), 1.66 × 10^10 cfu/ug pUC18; in the assay with XL1-Blue cells (Experiment #2, 2.5% sorbitol added before freezing), 1.48 × 10^10 cfu/ug pUC18; in the assay on XL1-Blue cells (Experiment #3, 1.0% sorbitol added before freezing), 1.03 × 10^10 cfu/ug pUC18. The “Efficiency (cfu/ug pUC18)” value is given as 1.23 × 10^10 cfu/ug pUC18 with XL1-Blue cells (Experiment #3, 2.0% sorbitol added before freezing); 1.33 × 10^10 cfu/ug pUC18 with XL1-Blue cells (Experiment #3, 2.5% sorbitol added before freezing); 1.29 × 10^10 cfu/ug pUC18 in the assay on XL1-Blue cells (Experiment #4, 2.0% sorbitol added before freezing); 1.39 × 10^10 cfu/ug pUC18 with XL1-Blue cells (Experiment #4, 2.5% sorbitol added before freezing); 1.60 × 10^10 cfu/ug pUC18 with XL1-Blue cells (Experiment #5, 2.0% sorbitol added before freezing); 1.60 × 10^10 cfu/ug pUC18 in the assay with XL1-Blue cells (Experiment #5, 2.5% sorbitol added before freezing). The Relative efficiency is reported as 2.20 in the assay with E. coli (setting [3]), 2.80 in the assay with E. coli (setting [1]), 3.10 with E. coli (additive final concentration 1.50%) and 1.50 in the assay on E. coli (setting [2]).
